Reference: ChEMBL document CHEMBL5053497, “Azaphilones from an Endophytic Penicillium sp. Prevent Neuronal Cell Death via Inhibition of MAPKs and Reduction of Bax/Bcl-2 Ratio” (2021)
Active and inactive are the calls of the source. No cut-off for these calls is given here.

Experiments:
HT-22 [1] = test: Inhibition of glutamate-induced MAPK activation in mouse HT-22 cells assessed as reduction in p38 phosphorylation at 10 to 20 uM incubated for 11 hrs in presence of glutamate by Western blot analysis; assay type: cell-based; conditions: dose 10-20 µM
HT-22 [2] = test: Inhibition of glutamate-induced MAPK activation in mouse HT-22 cells assessed as reduction in JNK phosphorylation at 10 to 20 uM incubated for 11 hrs in presence of glutamate by Western blot analysis; assay type: cell-based; conditions: dose 10-20 µM
HT-22 [3] = test: Inhibition of glutamate-induced MAPK activation in mouse HT-22 cells assessed as reduction in ERK phosphorylation at 10 to 20 uM incubated for 11 hrs in presence of glutamate by Western blot analysis; assay type: cell-based; conditions: dose 10-20 µM
HT-22 [4] = test: Neuroprotective activity in mouse HT-22 cells assessed as inhibition of glutamate-induced nuclear condensation at 10 to 20 uM incubated for 12 hrs in presence of glutamate by Hoechst 33342 staining based fluorescence microscopic analysis; assay type: functional, cell-based; conditions: dose 10-20 µM
HT-22 [5] = test: Neuroprotective activity against glutamate-induced cytotoxicity in mouse HT-22 cells assessed as cell viability at 25 uM incubated for 24 hrs in presence of glutamate by EZ-CyTox reagent based analysis relative to control; assay type: functional; conditions: read-out: Activity
HT-22 [6] = test: Neuroprotective activity in mouse HT-22 cells assessed as reduction in glutamate-induced intracellular Ca2+ level at 10 to 20 uM incubated for 8 hrs in presence of glutamate by Fluo-4AM staining based microscopic imaging analysis; assay type: functional, cell-based; conditions: dose 10-20 µM
HT-22 [7] = test: Neuroprotective activity against glutamate-induced cytotoxicity in mouse HT-22 cells assessed as cell viability at 12.5 uM incubated for 24 hrs in presence of glutamate by EZ-CyTox reagent based analysis; assay type: functional
HT-22 [8] = test: Neuroprotective activity against glutamate-induced cell death in mouse HT-22 cells assessed as reduction in Bax/Bcl2 ratio at 10 to 20 uM incubated for 11 hrs in presence of glutamate by Western blot analysis; assay type: functional, cell-based; conditions: dose 10-20 µM
HT-22 [9] = test: Neuroprotective activity in mouse HT-22 cells assessed as inhibition of glutamate-induced nuclear condensation at 25 uM incubated for 12 hrs in presence of glutamate by Hoechst 33342 staining based fluorescence microscopic analysis; assay type: functional, cell-based
HT-22 [10] = test: Neuroprotective activity in mouse HT-22 cells assessed as reduction in glutamate-induced intracellular Ca2+ level at 25 uM incubated for 8 hrs in presence of glutamate by Fluo-4AM staining based microscopic imaging analysis; assay type: functional, cell-based
HT-22 [11] = test: Neuroprotective activity against glutamate-induced cytotoxicity in mouse HT-22 cells assessed as cell viability at 25 to 50 uM incubated for 24 hrs in presence of glutamate by EZ-CyTox reagent based analysis (reference value: 50 %); assay type: functional; conditions: dose 25-50 µM
HT-22 [12] = test: Neuroprotective activity against glutamate-induced cytotoxicity in mouse HT-22 cells assessed as cell viability at 50 to 100 uM incubated for 24 hrs in presence of glutamate by EZ-CyTox reagent based analysis; assay type: functional; conditions: dose 50-100 µM
HT-22 [13] = test: Neuroprotective activity in mouse HT-22 cells assessed as reduction in glutamate-induced intracellular Ca2+ level at 50 uM incubated for 8 hrs in presence of glutamate by Fluo-4AM staining based microscopic imaging analysis; assay type: functional, cell-based

Compound: CC[C@H](C)/C=C(C)/C=C/C1=CC2=C(Cl)C(=O)[C@](C)(OC(C)=O)C(=O)C2=CN1 [SCLEROTIORAMINE]
- inhibition (HT-22 [1]): Active
- inhibition (HT-22 [2]): Active
- inhibition (HT-22 [3]): Active
- inhibition (HT-22 [4]): Active
- viability at 25 µM (HT-22 [5]): 100%
- Activity (HT-22 [6]): Active
- Activity (HT-22 [7]): Active
- Activity (HT-22 [8]): Active

Compound: CC[C@@H](/C=C(C)/C=C/C1=CC2=CC(=O)[C@](C)(O)[C@H](O)[C@H]2CO1)CO
- inhibition (HT-22 [9]): inactive
- Activity (HT-22 [10]): inactive
- Activity (HT-22 [11]): 80%

Compound: CC[C@H](C)/C=C(C)/C=C/C1=CC2=C(Cl)C(=O)[C@](C)(OC(C)=O)C(=O)C2=CN1CCO
- inhibition (HT-22 [9]): Active
- viability at 25 µM (HT-22 [5]): 100%
- Activity (HT-22 [6]): Active
- Activity (HT-22 [11]): 80%

Compound: CC(/C=C/C1=CC2=C(Cl)C(=O)[C@](C)(O)[C@H](O)[C@@H]2CO1)=C\[C@@H](C)CCO
- inhibition (HT-22 [9]): inactive
- Activity (HT-22 [10]): inactive
- Activity (HT-22 [11]): 80%

Compound: CC[C@H](C)/C=C(C)/C=C/C1=CC2=CC(=O)[C@](C)(O)[C@H](O)[C@H]2CO1
- inhibition (HT-22 [9]): inactive
- Activity (HT-22 [10]): inactive
- Activity (HT-22 [12]): Active

Compound: CC[C@H](C)/C=C(C)/C=C/C1=CC2=C(Cl)C(=O)[C@](C)(OC)C(=O)C2=CN1CCO
- inhibition (HT-22 [9]): Active
- viability at 25 µM (HT-22 [5]): 100%
- Activity (HT-22 [13]): Active
- Activity (HT-22 [11]): 80%

Compound: CC[C@H](C)/C=C(C)/C=C/C1=CC2=C(Cl)C(=O)[C@](C)(O)[C@H](O)C2=CO1
- Activity (HT-22 [12]): Active
